Tests used:
human DP cells = assay: MTT cell proliferation assay, DP cells; assay type: cell-based; conditions: 48 h
Description: To design transdermally deliverable AdipoR1 agonist, we further assessed the 15‐mer sequence by cutting it into several 5‐mer peptides (Fig EV1B) (Bos & Meinardi, [2000]). Based on the fact that AdipoRs are expressed in HF cells, including dermal papilla (DP) and outer root sheath (ORS) cells (Won et al, [2012]), we performed a cell proliferation assay on human DP and ORS cells to see if there is any potential biological effect of the 5‐mer peptides on the human HF cells.
Dermal papilla cells and ORS cells were seeded into a 96‐well plate (1.0 × 10^4 cells/well) with serum‐free culture media for 24 h and then treated with each candidate 5‐mer peptide (in 0.5 μg/ml or 5 μg/ml) for 48 h. After the addition of MTT solution (20 μl, 5 mg/ml) to each well, the cells were incubated for 4 h at 37°C in the dark room and then incubated with dimethyl sulfoxide (DMSO, 200 μl) for 20 min at room temperature. The samples were assessed by measuring the absorbance at 570 nm with an absorbance microplate reader (VersaMax).

[1] = test system: AMPK phosphorylation through AdipoR1 in DP cells; assay: Western blot p-AMPK in AdipoR1 siRNA-transfected DP cells; assay type: cell-based, human
Description: Following the confirmation of the molecular interaction between AdipoR1 and P5, we evaluated the activation of the intracellular signaling pathway by P5. We investigated whether APN treatment on ORS and DP cells could activate AMPK or ERK signaling pathways, which are previously known to be downstream effectors of AdipoR1 (Mao et al, [2006]; Deepa & Dong, [2009]; Shibata et al, [2012]). […] Next, for determination of whether both P5 and APN mediates the phosphorylation of AMPK through AdipoR1 in ORS and DP cells, the cells were transfected with AdipoR1 siRNA (Appendix Fig S1). […] Collectively, P5 activates AMPK signaling pathway through AdipoR1 in ORS and DP cells in vitro.
All transfections were performed using Lipofectamine 2000 following the manufacturer’s instructions (#11668019; Thermo Fisher). Human DP and ORS cells were cultured without antibiotics until reaching 50% confluency. AdipoR1 or scrambled siRNA (Bioneer) was used. The culture medium was changed 6 h after transfection, and the cells were incubated for another 24 h before subsequent analyses.
Human ORS and DP cells or skin tissue were lysed (RIPA lysis buffer; #20‐188; Merck Millipore). […] Antibody‐antigen complexes detected by enhanced chemiluminescent substrate (Thermo Fisher) were captured and quantified by Amersham imager 680 systems (GE Healthcare).

IGF-1 mRNA = assay: qRT-PCR growth factor gene expression in DP cells, IGF-1; assay type: cell-based, human; conditions: for mRNA_IGF1: DP cells
Description: Next, we investigated the downstream effects of P5 on hair growth factor genes and proteins in DP cells. […] We tested whether P5 can also increase the mRNA levels and proteins of hair growth factors in DP cells: IGF‐1, VEGF, HGF, platelet‐derived growth factor alpha (PDGFA), and fibroblast growth factor (FGF) 7, which are known to induce or maintain the anagen phase of the hair cycle (Jindo et al, [1994]; Philpott et al, [1994]; Yano et al, [2001]; Jang, [2005]; Tomita et al, [2006]; Iino et al, [2007]).
Total RNA was isolated from P5‐treated DP cells using RNAiso Plus (#9109; TaKaRa). We used the total RNA (1 µg) for cDNA synthesis using a RevertAid First Strand cDNA Synthesis Kit (Thermo Fisher) according to the manufacturer's instructions. The mRNA expression levels were quantified on a 7500 Real‐time PCR System (Thermo Fisher) using TB Green Premix Ex Taq (TaKaRa Bio): human IGF‐1, VEGF, HGF, PDGFA, FGF7, and glyceraldehyde 3‐phosphate dehydrogenase (GAPDH) (Appendix Table S2). The relative expression levels of each gene were determined by the 2^‐ΔΔCT method.

With “GLYYF [P5, GST-fused (GST-P5) in pulldown assays]” the “Relative cell proliferation, DP” value (human DP cells; 0.5μg/ml, control = 1, replicate 1) was 1.11, the “Relative cell proliferation, DP” value (human DP cells; 0.5μg/ml, control = 1, replicate 2) was 1.117 and the “Relative cell proliferation, DP” value (human DP cells; 0.5μg/ml, control = 1, replicate 3) was 1.106. For the same substance, the “Relative cell proliferation, DP” value (human DP cells; 5μg/ml, control = 1, replicate 1) was 1.094, the “Relative cell proliferation, DP” value (human DP cells; 5μg/ml, control = 1, replicate 2) was 1.179 and the “Relative cell proliferation, DP” value (human DP cells; 5μg/ml, control = 1, replicate 3) was 1.068. The “Relative cell proliferation, DP” value (human DP cells; 5μg/ml, control = 1, replicate 4) was 1.07, the “Relative cell proliferation, DP” value (human DP cells; 5μg/ml, control = 1, replicate 5) was 1.01 and the “Cell proliferative effect, DP cells” value (human DP cells; 0.5 or 5 μg/ml, Paired t-test vs control) was “significant cell proliferative effects”. The “p-AMPK intensity after AdipoR1 siRNA transfection, DP cells” value [1] was “intensity was reduced”, the mRNA_IGF1 (IGF-1 mRNA; P5 5μM, relative to Control = 1, replicate 1) was 1.775 and the mRNA_IGF1 (IGF-1 mRNA; P5 5μM, relative to Control = 1, replicate 2) was 0.9141. It also gave a mRNA_IGF1 (IGF-1 mRNA; P5 5μM, relative to Control = 1, replicate 3) of 1.9981, a mRNA_IGF1 (IGF-1 mRNA; P5 5μM, relative to Control = 1, replicate 4) of 0.5956 and a mRNA_IGF1 (IGF-1 mRNA; P5 5μM, relative to Control = 1, replicate 5) of 0.9696. For the same substance, the mRNA_IGF1 (IGF-1 mRNA; P5 25μM, relative to Control = 1, replicate 1) was 4.048, the mRNA_IGF1 (IGF-1 mRNA; P5 25μM, relative to Control = 1, replicate 2) was 1.581 and the mRNA_IGF1 (IGF-1 mRNA; P5 25μM, relative to Control = 1, replicate 3) was 3.012. For the same substance, the mRNA_IGF1 (IGF-1 mRNA; P5 25μM, relative to Control = 1, replicate 4) was 4.414, the mRNA_IGF1 (IGF-1 mRNA; P5 25μM, relative to Control = 1, replicate 5) was 1.2502 and the “IGF-1 mRNA expression” value (IGF-1 mRNA; P5-treated DP cells, n = 5) was “significantly increased”.

From article PMC8495455, “Discovery of a transdermally deliverable pentapeptide for activating AdipoR1 to promote hair growth” (EMBO Molecular Medicine, 2021)
